Tested on: gut microbiota
Assay: Gut microbiome analysis (16S rRNA sequencing of fecal samples) in STAM model of NASH
Assay type: in vivo, C57BL/6J mice
Details: pre (baseline)
Source text: The study is reported in accordance with Animal Research: Reporting of In Vivo Experiments (ARRIVE) guidelines. C57BL/6J mice were obtained from Japan SLC, Inc. (Japan). All animals used in this study were cared for under the following guidelines: Act on Welfare and Management of Animals (Ministry of the Environment, Japan, Act No. 105 of Oct. 1, 1973), standards relating to the care and management of laboratory animals and relief of pain (Notice No. 88 of the Ministry of the Environment, Japan, Apr. 28, 2006) and the guidelines for proper conduct of animal experiments (Science Council of Japan, Jun. 1, 2006). Protocol approvals were obtained from SMC Laboratories, Japan's IACUC (Study reference no: […] Mice were maintained in a specific pathogen-free (SPF) facility under controlled conditions of temperature (23±3° C.), humidity (50±20%), lighting (12-hour artificial light and dark cycles; light from 8:00 to 20:00) and air exchange. The STAM model of NASH was induced as previously described [D10]. Mice were given a single subcutaneous injection of 200 μg streptozotocin (STZ, Sigma-Aldrich, USA) solution 2 days after birth and fed with a high-fat diet (HFD, 57 kcal % fat, Cat #HFD32, CLEA Japan, Inc., Japan) from 4-9 weeks of age. All mice develop liver steatosis and diabetes and at […] mice had established steatohepatitis, histologically. Studygroups: There were five study groups, described below. Eight mice were included in each study group. Eight NASH mice were orally administered vehicle supplemented with AFO-202 Beta Glucan at a dose of 1 mg/kg in a volume of 5 mL/kg once daily from 6 to 9 weeks of age. Eight NASH mice were orally administered vehicle supplemented with Telmisartan at a dose of 10 mg/kg once daily from 6 to 9 weeks of age. Frequency: Fecal samples were collected at the 6 weeks of age (before administration) and 9 weeks of age (before sacrifice). Procedure: At 6 weeks of age, fecal samples were collected from each mouse by clean catch method. […] A sterile petri dish was placed on the bench. Gently massage the abdomen, position the bottom of mouse over a fresh petri dish, and collect 1-2 fecal pellets. At sacrifice, fecal samples were aseptically collected from cecum. The tubes with feces were placed on ice immediately. These tubes were snap frozen in liquid nitrogen and stored at -80° C. for shipping. In this analysis, the 16S rRNA sequence data acquired by the next-generation sequencer from the fecal […] was used to perform community analysis using the QIIME2 program for microbial community analysis. The raw read data in FASTQ format output from the next-generation sequencer was trimmed to remove adapter sequences and low QV regions that may be included in the data. Cutadapt was used to remove adapter sequences from DNA sequencing reads. Trimmomatic was used as read trimming tool for Illumina NGS data. The adapter sequence was trimmed using the adapter trimming program “cutadapt” if the Trimming of the region at the end of the read sequence overlapped the corresponding sequence by at least one base (mismatch tolerance: 20%). When reads containing N were present in at least one of Read1 and Read2, both Read1 and Read2 were removed. Trimming of low QV regions was performed on the read data after processing using the QV trimming program “Trimmomatic” under the following conditions. The window of 20 bases is slid from the 5' side, and the area where the average QV is less than 20 is trimmed. After trimming, only the reads with more than 50 bases remaining in both Read1 and Read2 were taken as output. The microbial community analysis based on 16S rRNA sequence was performed on the sequence data trimmed in the previous section using the microbial community analysis program “QIIME2”. The annotation program “sklearn” included in QIIME2 is used to annotate the ASV (OTU) sequences. […]

Question: Which results are given for `CCCc1nc2c(C)cc(-c3nc4ccccc4n3C)cc2n1Cc1ccc(-c2ccccc2C(=O)O)cc1` [Telmisartan]?
Answer: Abundance: Ruminococcaceae, Oscillospira, — (line r193): 57; Abundance: Lactobacillaceae, Lactobaccilus, reuteri (line r194): 0; Abundance: Coriobacteriaceae, Adlercreutzia, — (line r195): 58; Abundance: Lachnospiraceae, —, — (line r196): 0; Abundance: S24-7, —, — (line r197): 64; Abundance: Turicibacteraceae, Turicibacter, — (line r198): 0; Abundance: S24-7, —, — (line r199): 45; Abundance: Rikenellaceae, —, — (line r200): 25; Abundance: Enterobacteriaceae, Other, Other (line r201): 0; Abundance: Rikenellaceae, Other, Other (line r202): 47; Abundance: Lactobacillaceae, Lactobaccilus, Other (line r204): 0; Abundance: —, —, — (line r205): 60; Abundance: S24-7, —, — (line r206): 27; Abundance: S24-7, —, — (line r207): 35; Abundance: —, —, — (line r208): 85; Abundance: Enterobacteriaceae, Klebsiella, Other (line r209): 0; Abundance: —, —, — (line r210): 63; Abundance: Lachnospiraceae, Other, Other (line r211): 48; Abundance: Ruminococcaceae, Oscillospira, — (line r212): 0; Abundance: Ruminococcaceae, Oscillospira, — (line r213): 71; Abundance: Bacteroidaceae, Bacteroides, acidifaciens (line r214): 27; Abundance: Erysipelotrichaceae, —, — (line r215): 51; Abundance: Lachnospiraceae, Dorea, — (line r216): 98; Abundance: Enterobacteriaceae, Enterobacter, Other (line r217): 0; Abundance: Ruminococcaceae, Oscillospira, — (line r218): 42; Abundance: Ruminococcaceae, Other, Other (line r219): 61; Abundance: Ruminococcaceae, Oscillospira, — (line r220): 0; Abundance: Rikenellaceae, —, — (line r221): 31; Abundance: Lachnospiraceae, Other, Other (line r223): 98; Abundance: Other, Other, Other (line r224): 18; Abundance: Ruminococcaceae, Oscillospira, — (line r225): 79; Abundance: S24-7, —, — (line r226): 38; Abundance: Lachnospiraceae, —, — (line r227): 3; Abundance: Streptococcaceae, Staphylococcus, — (line r228): 0; Abundance: —, —, — (line r229): 96; Abundance: —, —, — (line r230): 87; Abundance: —, —, — (line r231): 0; Abundance: Other, Other, Other (line r232): 10; Abundance: Aerococcaceae, Aerococcus, — (line r233): 0; Abundance: Ruminococcaceae, —, — (line r234): 0; Abundance: —, —, — (line r235): 61; Abundance: Streptococcaceae, Staphylococcus, — (line r236): 0; Abundance: Ruminococcaceae, Oscillospira, — (line r237): 0; Abundance: —, —, — (line r238): 0; Abundance: Ruminococcaceae, Ruminococcus, — (line r239): 0; Abundance: —, —, — (line r240): 6; Abundance: Other, Other, Other (line r241): 0; Abundance: Ruminococcaceae, Oscillospira, — (line r242): 30; Abundance: Lachnospiraceae, [Ruminococcus], gnavus (line r243): 27; Abundance: Lachnospiraceae, —, — (line r244): 0; Abundance: Other, Other, Other (line r245): 0; Abundance: Ruminococcaceae, Oscillospira, — (line r246): 37; Abundance: —, —, — (line r247): 69; Abundance: Other, Other, Other (line r248): 0; Abundance: Other, Other, Other (line r249): 0; Abundance: Other, Other, Other (line r250): 68; Abundance: Lachnospiraceae, Clostridium, Other (line r251): 0; Abundance: Lachnospiraceae, —, — (line r252): 0; Abundance: Other, Other, Other (line r253): 13; Abundance: Other, Other, Other (line r254): 23; Abundance: Ruminococcaceae, Oscillospira, — (line r255): 25; Abundance: Desulfovibrionaceae, —, — (line r256): 23; Abundance: Dehalobacteriaceae, Dehalobacterium, — (line r257): 24; Abundance: Ruminococcaceae, Ruminococcus, — (line r259): 44; Abundance: Lachnospiraceae, Coprococcus, — (line r260): 23; Abundance: Ruminococcaceae, Oscillospira, — (line r261): 0; Abundance: Other, Other, Other (line r262): 0; Abundance: Lachnospiraceae, Coprococcus, — (line r263): 34; Abundance: Ruminococcaceae, Oscillospira, — (line r264): 87; Abundance: Christensenellaceae, —, — (line r265): 37; Abundance: S24-7, —, — (line r266): 44; Abundance: Ruminococcaceae, Oscillospira, — (line r267): 95; Abundance: Lachnospiraceae, Coprococcus, — (line r268): 11; Abundance: Lachnospiraceae, Other, Other (line r269): 0; Abundance: Erysipelotrichaceae, Clostridium, cocleatum (line r271): 16; Abundance: —, —, — (line r272): 92; Abundance: Desulfovibrionaceae, Bilophila, — (line r273): 11; Abundance: —, —, — (line r274): 107; Abundance: Corynebacteriaceae, Corynebacterium, stationis (line r275): 0; Abundance: Lachnospiraceae, Other, Other (line r276): 0; Abundance: Lachnospiraceae, Other, Other (line r277): 0; Abundance: Lachnospiraceae, —, — (line r278): 14; Abundance: Lachnospiraceae, —, — (line r279): 31; Abundance: —, —, — (line r280): 108; Abundance: —, —, — (line r281): 0; Abundance: —, —, — (line r282): 0; Abundance: Ruminococcaceae, —, — (line r283): 27; Abundance: —, —, — (line r284): 96; Abundance: Lachnospiraceae, —, — (line r285): 90; Abundance: Dehalobacteriaceae, Dehalobacterium, — (line r286): 3; Abundance: Other, Other, Other (line r287): 0; Abundance: Streptococcaceae, Streptococcus, luteciae (line r288): 12; Abundance: —, —, — (line r289): 0; Abundance: S24-7, —, — (line r290): 0; Abundance: Ruminococcaceae, Ruminococcus, — (line r292): 10; Abundance: Lachnospiraceae, Clostridium, Other (line r293): 26; Abundance: —, —, — (line r294): 10; Abundance: Ruminococcaceae, Oscillospira, — (line r295): 11; Abundance: Lachnospiraceae, Coprococcus, — (line r296): 20; Abundance: —, —, — (line r297): 12; Abundance: S24-7, —, — (line r298): 0; Abundance: Lachnospiraceae, —, — (line r300): 0; Abundance: Ruminococcaceae, Oscillospira, — (line r301): 54

Source: patent publication US20240374631A1, “A COMPOSITION FOR IMPROVING GUT MICROBIOTA, BEHAVIOURAL PATTERN, ALPHA-SYNUCLEIN LEVELS, SLEEP PATTERN AND/OR SERUM MELATONIN” (GN Corporation Co Ltd, priority 2021, published 2024)
